From patent US20240423977A1, “FIVE-MEMBERED RING-FUSED SIX-MEMBERED RING COMPOUND, PREPARATION METHOD THEREFOR, AND PHARMACEUTICAL COMPOSITION AND USE THEREOF” (HANGZHOU POLYMED BIOPHARMACEUTICALS, INC., priority 2022, published 2024)

How the values were obtained:
[1] = target: IRAK4 protein in THP-1 cells (Homo sapiens (Human), UniProt Q9NWZ3); experiment: PROTAC-induced IRAK4 protein degradation in THP-1 cells (Western Blot); format: cell-based; details: for IRAK4 degradation rate 24 hours after administration of the compounds with a concentration of 1 μM: Western blotting; for DC50: concentration that degraded 50% of IRAK4, Western blotting, 24 hours after administration
IRAK4 protein in THP-1 cells, sequence (Q9NWZ3 whole entry): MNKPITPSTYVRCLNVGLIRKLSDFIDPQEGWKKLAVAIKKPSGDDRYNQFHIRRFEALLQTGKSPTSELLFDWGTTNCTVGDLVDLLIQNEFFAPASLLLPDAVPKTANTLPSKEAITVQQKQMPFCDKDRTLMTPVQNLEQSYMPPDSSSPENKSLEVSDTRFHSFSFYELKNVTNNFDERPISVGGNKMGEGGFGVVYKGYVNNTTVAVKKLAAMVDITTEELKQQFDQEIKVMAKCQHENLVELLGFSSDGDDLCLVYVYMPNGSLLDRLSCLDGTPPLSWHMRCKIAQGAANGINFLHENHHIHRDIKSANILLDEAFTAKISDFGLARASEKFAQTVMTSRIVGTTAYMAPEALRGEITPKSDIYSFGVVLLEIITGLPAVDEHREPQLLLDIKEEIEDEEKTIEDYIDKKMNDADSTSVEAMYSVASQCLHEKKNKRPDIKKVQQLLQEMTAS
Procedure: 2.1 Based on the experimental method of Western Blot, specific antibodies were used to stain the THP-1 cell samples treated by gel electrophoresis, and the degrading activity of the compounds on the IRAK4 protein in THP-1 cells was determined by analyzing the position and depth of staining. The concentrations of compound for the detection included 0 μM, 0.3 μM, 1 μM and 3 μM, and the cells were treated by the compound for 8 hours, 16 hours, 24 hours, and 48 hours. Glyceraldehyde-3-phosphate dehydrogenase (GAPDH) is an internal reference protein in this experiment.
Electrophoresis buffer: 50 mL MOPS SDS Running Buffer (20×) and 50 mL 20×TBS Tween-20 buffer were diluted with deionized water to 1 L as the electrophoresis buffer;
5% skim milk (w/v): 2.5 g skim milk was diluted with 50 mL 1×TBS Tween-20 buffer to prepare 5% skim milk;
5% BSA (w/v): 2.5 g BSA was diluted with 50 mL 1×TBS Tween-20 buffer to prepare 5% BSA;
Anti-IRAK4 antibody was diluted with 5% BSA at 1:1000 into a primary antibody working solution;
Goat Anti-Rabbit IgG H&L (HRP) was diluted with 5% BSA at 1:2000 into a second antibody working solution; and
Goat Anti-Mouse IgG H&L (HRP) was diluted with 5% BSA at 1:2000 into a second antibody working solution.
THP-1 cells were plated in a 6-well plate at a density of 1.5×10^6 cells per ml and incubated for 2 hours in a cell culture incubator under 37° C. and 5% CO2. The compound was diluted with DMSO to 0.6 mM, 0.2 mM and 0.06 mM respectively. 10 μL of compound solution was added to the corresponding wells, and continued to incubate in the incubator for 16 hours, 24 hours and 48 hours respectively. The compound-treated THP-1 cells in the well were collected, added with 120 μL of RIPA lysate containing protease inhibitor, Phosphatase Inhibitor Cocktail 2 and Phosphatase Inhibitor Cocktail 3, lysed on wet ice for 30 minutes, and then the cells lysate was centrifuged at a high speed and a low temperature for 5 minutes to collect the supernatant. The protein concentration of the cell sample was determined according to the instructions in the Pierce™ BCA Protein Assay Kit.
The concentration of the sample was adjusted to be consistent using lysis buffer and NuPAGE® LDS sample buffer containing 1M DTT. The samples were heated at 95° C. for 5 minutes and centrifuged at a low temperature and at a high speed. 20 μL of the prepared protein sample and 4 μL of PageRuler Prestained Protein Ladder were added into the gel well for running at 80V voltage for 0.5 hours, then the voltage was adjusted to 120V for further running for 1.5 hours. The gel was removed and the proteins in the gel were transferred to the IBlotTM 2 transfer membrane set at 20V. After successful transfer, bands at 65 kDa-40 kDa and 40 kDa-30 kDa were cut respectively. The membranes were blocked with 5% skim milk for 1 hour at room temperature. The membranes were washed three times with 1× concentration of TBST, then incubated with IRAK4 antibody working solution overnight at 4° C. The IRAK4 antibody working solution was discarded, and the membranes were washed three times with 1×concentration of TBST, and incubated with Goat Anti-Rabbit IgG H&L (HRP) working solution and Goat Anti-Mouse IgG H&L (HRP) working solution at room temperature. After 1 hour of incubation, the antibody working solution was discarded and the membranes were washed three times with 1× concentration of TBST. According to the instructions of the kit SuperSignal™ West Femto Maximum Sensitivity Substrate, the reagents in the kit were mixed in equal volume proportions to prepare a luminescent liquid mixture. The membranes were incubated for 1 minute, then removed for exposure.
The results of Western blotting 24 hours after administration of the compounds with a concentration of 1 μM were shown in Table 3: […]

kinase IRAK4 = kinase IRAK4 (Homo sapiens (Human), UniProt Q9NWZ3); experiment: Inhibitory effects of compounds on kinase activity (fluorescence microfluidic mobility detection, competitive with ATP); format: biochemical; details: IRAK4 6 nM, ATP 10 μM
kinase IRAK4, sequence (Q9NWZ3 whole entry): as above
Procedure: Based on an experimental method of fluorescence microfluidic mobility detection, an IC50 value of competitive binding of kinase IRAK4 to ATP by the compounds was determined. The initial detection concentration of the compounds was 10 μM, diluted 4-fold gradient down to […], and tested in duplicate. Among them, commercial staurosporine was the standard control substance in this experiment.
1) IRAK4 kinase was dissolved in kinase buffer (50 mM HEPES pH 7.5, 10 mM MgCl2, 2 mM DTT and 0.01% Brij-35) to a final concentration of 6 nM.
2) The substrate peptide FAM-P8 and ATP were dissolved in the above kinase buffer. The final concentrations of the IRAK4 substrate peptide FAM-P8 and ATP were 3 μM and 10 μM respectively.
3) Dilution of the compounds: the compound was first diluted to 50 μM, and then diluted down with a 4-fold gradient of DMSO. The solution without the compound and kinase is used as a blank control, corresponding to the “minimum value” shown below; and the solution without the compound but with kinase, adenosine 5′-triphosphate disodium salt hydrate, DMSO and buffer is used as a positive control, corresponding to the “maximum value” shown below. 4) Kinase reaction and termination: 10 μL of kinase buffer was added to a 384-well plate containing 5 μL of the compound to be tested, and incubated at room temperature for 10 minutes. Another 10 μL of buffer containing the substrate peptide and adenosine 5′-triphosphate disodium salt hydrate was added to the 384-well plate. After incubation at 28° C. for one hour, 25 μL stop solution (100 mM HEPES pH 7.5, 50 mM EDTA, 0.2% Coating Reagent #3 and 0.015% Brij-35) was added to each well to terminate the reaction.
5) Data reading: the CaliperEZ Reader II instrument was used to read the conversion rate data. Conditions: downstream voltage −500V, upstream voltage −2250V, base pressure −0.5 PSI, and screening pressure −1.2 PSI.
6) Data calculation: the conversion rate data was copied from CaliperEZ Reader II and converted into inhibition rate data. The calculation formula is as follows:
[formula] • IC50 values were fitted using XLFit excel add-in version 5.4.0.8,
Y=Bottom+(Top−Bottom)/(1+(IC50/X)^HillSlope) Fitting formula: […]

Row | Structure (SMILES) | IRAK4 degradation rate 24 hours after administration of the compounds with a concentration of 1 μM [1] | DC50 [1] | IC50 (kinase IRAK4; Table 1, class symbols) | IC50 (kinase IRAK4; Table 2, substrate FAM-P8 3 μM)
1 | COc1cc2nn(C3CC4(CCN(C(=O)[C@H]5CC[C@H](Nc6ccc7c(c6)C(=O)N(C6CCC(=O)NC6=O)C7=O)CC5)CC4)C3)cc2cc1NC(=O)c1cccc(C(F)(F)F)n1 (stereo partly drawn) [Compound I-4] | – | 2.06 nM | < 100 nM | 36.6 nM
2 | CC(C)(O)c1cc2nn(C3CC4(CCN(C(=O)C5CCN(c6ccc7c(c6)C(=O)N(C6CCC(=O)NC6=O)C7=O)CC5)CC4)C3)cc2cc1NC(=O)c1cccc(C(F)(F)F)n1 (stereo not drawn) [Compound I-5] | – | 3.6 nM | – | 11.3 nM
3 | O=C1CCC(N2C(=O)c3ccc(N4CCC(C(=O)N5CCC6(CC5)CC(n5cc7cc(NC(=O)c8cccc(C(F)(F)F)n8)c(N8CC[C@@H](O)C8)cc7n5)C6)CC4)cc3C2=O)C(=O)N1 (stereo partly drawn) [Compound I-10] | – | 5.07 nM | – | 24 nM
4 | COc1cc2nn(C3CC4(CCN(CC5CCN(c6ccc7c(c6)C(=O)N(C6CCC(=O)NC6=O)C7=O)CC5)CC4)C3)cc2cc1NC(=O)c1cccc(C(F)(F)F)n1 (stereo not drawn) [Compound I-13] | – | 15.8 nM | < 100 nM | 4.81 nM
5 | COc1cc2nn(C3CC4(C3)CN(C(=O)C3CCN(c5ccc6c(c5)C(=O)N(C5CCC(=O)NC5=O)C6=O)CC3)C4)cc2cc1NC(=O)c1cccc(C(F)(F)F)n1 (stereo not drawn) [Compound I-14] | – | 12.6 nM | – | 16.6 nM
6 | COc1cc2nn(C3CC4(CCN(C(=O)C5CC6(C5)CN(c5ccc7c(c5)C(=O)N(C5CCC(=O)NC5=O)C7=O)C6)CC4)C3)cc2cc1NC(=O)c1cccc(C(F)(F)F)n1 (stereo not drawn) [Compound I-17] | – | 25.9 nM | – | 31 nM
7 | COc1cc2nn(C3CC4(CCC(C(=O)N5CCN(c6ccc7c(c6)C(=O)N(C6CCC(=O)NC6=O)C7=O)CC5)CC4)C3)cc2cc1NC(=O)c1cccc(C(F)(F)F)n1 (stereo not drawn) [Compound I-20] | – | 11.2 nM | – | 23.6 nM
8 | COc1cc2nn(C3CC4(CCN(C5CC6(CCN(c7ccc8c(c7)C(=O)N(C7CCC(=O)NC7=O)C8=O)CC6)C5)CC4)C3)cc2cc1NC(=O)c1cccc(C(F)(F)F)n1 (stereo not drawn) [Compound I-24] | – | 15.3 nM | – | 17.4 nM
9 | COc1cc2nn(C3CC4(CCN(C(=O)C5CCN(c6cccc7c6C(=O)N(C6CCC(=O)NC6=O)C7=O)CC5)CC4)C3)cc2cc1NC(=O)c1cccc(C(F)(F)F)n1 (stereo not drawn) [Compound I-25] | – | > 1000 nM | – | 20.4 nM
10 | COc1cc2nn(C3CC4(CCN(C(=O)C5CCC6(CC5)CN(c5ccc7c(c5)C(=O)N(C5CCC(=O)NC5=O)C7=O)C6)CC4)C3)cc2cc1NC(=O)c1cccc(C(F)(F)F)n1 (stereo not drawn) [Compound I-26] | – | 44.6 nM | – | 30 nM

The remaining compounds from weak to strong by IC50 (kinase IRAK4; Table 2, substrate FAM-P8 3 μM), led by results:

Row | IRAK4 degradation rate 24 hours after administration of the compounds with a concentration of 1 μM [1] | DC50 [1] | IC50 (kinase IRAK4; Table 1, class symbols) | IC50 (kinase IRAK4; Table 2, substrate FAM-P8 3 μM) | Structure (SMILES)
11 | – | – | – | 1960 nM | COc1cc2c(cnn2C2CC3(CCC(C(=O)N4CCN(c5ccc6c(c5)C(=O)N(C5CCC(=O)NC5=O)C6=O)CC4)CC3)C2)cc1NC(=O)c1cccc(C(F)(F)F)n1 (stereo not drawn) [Compound I-56]
12 | – | 1.08 nM | – | 57.6 nM | CC(O)(c1cc2nn(C3CC4(CCN(C(=O)C5CCN(c6ccc7c(c6)C(=O)N(C6CCC(=O)NC6=O)C7=O)CC5)CC4)C3)cc2cc1NC(=O)c1cccc(C(F)(F)F)n1)C(F)(F)F (stereo not drawn) [Compound I-12F]
13 | – | 6.9 nM | – | 42 nM | COc1cc2nn(C3CCC4(CC3)CCN(C(=O)C3CCN(c5ccc6c(c5)C(=O)N(C5CCC(=O)NC5=O)C6=O)CC3)CC4)cc2cc1NC(=O)c1cccc(C(F)(F)F)n1 (stereo not drawn) [Compound I-27]
14 | – | 12 nM | – | 32.9 nM | O=C1CCC(N2C(=O)c3ccc(N4CCC(C(=O)N5CCC6(CC5)CC(n5cc7cc(NC(=O)c8cccc(C(F)(F)F)n8)c(N8CCOCC8)cc7n5)C6)CC4)cc3C2=O)C(=O)N1 (stereo not drawn) [Compound I-9]
15 | – | 8.2 nM | < 100 nM | 25.9 nM | COc1cc2nn(C3CC4(CCN(C(=O)C5CCN(c6cc7c(cc6F)C(=O)N(C6CCC(=O)NC6=O)C7=O)CC5)CC4)C3)cc2cc1NC(=O)c1cccc(C(F)(F)F)n1 (stereo not drawn) [Compound I-8]
16 | 75~100% | 3.64 nM | < 100 nM | 16 nM | COc1cc2nn(C3CC4(CCN(C(=O)[C@H]5CC[C@H](CNc6ccc7c(c6)C(=O)N(C6CCC(=O)NC6=O)C7=O)CC5)CC4)C3)cc2cc1NC(=O)c1cccc(C(F)(F)F)n1 (stereo partly drawn) [Compound I-3]
17 | – | 8.3 nM | – | 12.5 nM | COc1cc2nn([C@H]3C[C@@H]4CN(C(=O)C5CCN(c6ccc7c(c6)C(=O)N(C6CCC(=O)NC6=O)C7=O)CC5)C[C@@H]4C3)cc2cc1NC(=O)c1cccc(C(F)(F)F)n1 (stereo partly drawn) [Compound I-28]
18 | – | 9.9 nM | – | 11.6 nM | COc1cc2nn(C3CC4(CCC(NC5CCN(c6ccc7c(c6)C(=O)N(C6CCC(=O)NC6=O)C7=O)CC5)CC4)C3)cc2cc1NC(=O)c1cccc(C(F)(F)F)n1 (stereo not drawn) [Compound I-16]
19 | 75~100% | 4.41 nM | < 100 nM | 11 nM | COc1cc2nn(C3CC4(CCN(CC(=O)N5CCN(c6ccc7c(c6)C(=O)N(C6CCC(=O)NC6=O)C7=O)CC5)CC4)C3)cc2cc1NC(=O)c1cccc(C(F)(F)F)n1 (stereo not drawn) [Compound I-2]
20 | – | 3.6 nM | – | 8.1 nM | COc1cc2nn(C3CC4(CCN(C(=O)C5CCN(c6ccc7c(c6)CN(C6CCC(=O)NC6=O)C7=O)CC5)CC4)C3)cc2cc1NC(=O)c1cccc(C(F)(F)F)n1 (stereo not drawn) [Compound I-7]
21 | – | 1.78 nM | – | 8.1 nM | COc1cc2nn(C3CCC4(CC3)CN(C(=O)C3CCN(c5ccc6c(c5)C(=O)N(C5CCC(=O)NC5=O)C6=O)CC3)C4)cc2cc1NC(=O)c1cccc(C(F)(F)F)n1 (stereo not drawn) [Compound I-19]
